Legend:
[1] = tested on: IP-Implanted L1210 Leukemia; experiment: Dose-response against IP-implanted L1210 leukemia, IP treatment Days 1, 5 and 9, 30-day test (Table 2); format: in vivo, CD2Fl male mice
Description: (§1) Biological properties of the compounds of the present invention were determined following the protocol described in Cancer Chemotherapy Reports, Vol. 3, No. 3, 1972 which report is incorporated herein by reference.
(§2) This experiment (A8-00005 3LE31) was conducted at the Southern Research Institute, Birmingham, Ala. under the supervision of Dr. Daniel Griswold. The protocols were the same as those published previously (Geran et al., Cancer Chemotherapy Reports 3: No. 2, 1972 [Attachment 11]). 10^5 cells were implanted intraperitoneally in CD2Fl male mice on Day 0. Drug treatments were given intraperitoneally as single injections at the doses indicated on Days 1, 5 and 9 after tumor implantation. The diluent was saline except for NSC-271674 where 5% sodium bicarbonate was used. All drugs were prepared fresh on the day of injection, and all were administered in solution. Median survival times for both control and drug-treated mice were determined and expressed as a percentage (% T/C). Body weights were determined on Day 5 and expressed as a weight difference (body weight of the drug-treated animals minus that of the control animals in grams) (T-C). The diluent control animals lived a median of 8.4 days and gained 1.9 grams by Day 5 in this experiment. All animals, including Day 30 survivors, were used in the calculation of median survival times. The log10 change in tumor burden refers to the net log change in viable tumor cell population at the end of therapy (Rx) as compared to the start of therapy; e.g., a […] means that there was a […] and a 3 log change means there was a 1000-fold increase in tumor burden at the end of therapy. The tumor burden at the start of therapy was about 6.1×10^5 cells in this experiment.

IP L1210/Cisplatin [2] = experiment: Activity against IP-implanted L1210/Cisplatin leukemia resistant to cisplatin, 30 day test (Table 3); format: in vivo, Female CD2Fl mice
Description: as §1
(§3) Other known mechanisms of resistance for other classes of agents, such as gene amplification or target enzyme change or amplication, also need to be explored. The experiments summarized in Table 3 were conducted at the same time against both sublines using the same drug preparations. […] These experiments were repeated in a second laboratory as documented in Table 4. However, in these experiments the animals were held for 60 rather than 30 days to evaluate whether or not long-term survivors are produced after drug treatment in a more challenging setting.
This experiment (A8-00005 3LE31) was conducted at the Southern Research Institute, Birmingham, Ala. under the supervision of Dr. Daniel Griswold. The protocols were the same as those published previously (Geran et al., Cancer Chemotherapy Reports 3: No. 2, 1972 [Attachment 11]). 10^5 cells were implanted intraperitoneally in CD2Fl male mice on Day 0. Drug treatments were given intraperitoneally as single injections at the doses indicated on Days 1, 5 and 9 after tumor implantation. The diluent was saline except for NSC-271674 where 5% sodium bicarbonate was used. All drugs were prepared fresh on the day of injection, and all were administered in solution. Median survival times for both control and drug-treated mice were determined and expressed as a percentage (% T/C). Body weights were determined on Day 5 and expressed as a weight difference (body weight of the drug-treated animals minus that of the control animals in grams) (T-C). The diluent control animals lived a median of 8.4 days and gained 1.9 grams by Day 5 in this experiment. All animals, including Day 30 survivors, were used in the calculation of median survival times. The log10 change in tumor burden refers to the net log change in viable tumor cell population at the end of therapy (Rx) as compared to the start of therapy; e.g., a […] means that there was a […] and a 3 log change means there was a 1000-fold increase in tumor burden at the end of therapy. The tumor burden at the start of therapy was about 6.1×10^5 cells in this experiment. […]

IP L1210 = experiment: Activity against IP-implanted L1210 leukemia sensitive to cisplatin, 60 day test (Table 4); format: in vivo, Female CD2Fl mice
Description: as §1, §3, §2
(§4) These experiments (23-00081 3LE31 and 23-00003 3DP3l) were conducted concurrently at the Mason Research Institute, Worcester, MA under the supervision of Dr. William Cobb. See Table 4 for experimental details. The diluent control animals bearing L1210 leukemia lived a median of 8.3 days and gained 1.6 grams by Day 5. […] Female CD2Fl mice were used for these experiments.

IP L1210/Cisplatin [3] = experiment: Activity against IP-implanted L1210/Cisplatin leukemia resistant to cisplatin, 60 day test (Table 4); format: in vivo, Female CD2Fl mice
Description: as §1
Other known mechanisms of resistance for other classes of agents, such as gene amplification or target enzyme change or amplication, also need to be explored. The experiments summarized in Table 3 were conducted at the same time against both sublines using the same drug preparations. […] These experiments were repeated in a second laboratory as documented in Table 4. However, in these experiments the animals were held for 60 rather than 30 days to evaluate whether or not long-term survivors are produced after drug treatment in a more challenging setting. […]
as §4

Tetrachloro-cis-1,2-cyclohexanediamine platinum (IV)
30-Day Survivors/Total ([1]; 1 mg/kg/dose IP): 0/6
Approx. Log10 Change in Tumor Burden at End of Rx ([1]; 1 mg/kg/dose IP): ~2.8 log10
Body Weight Difference ([1]; 1 mg/kg/dose IP): -0.8 Grams
Median % T/C ([1]; 1 mg/kg/dose IP): 128%
30-Day Survivors/Total ([1]; 2 mg/kg/dose IP): 0/6
Approx. Log10 Change in Tumor Burden at End of Rx ([1]; 2 mg/kg/dose IP): ~2.6 log10
Body Weight Difference ([1]; 2 mg/kg/dose IP): -1.3 Grams
Median % T/C ([1]; 2 mg/kg/dose IP): 140%
30-Day Survivors/Total ([1]; 4 mg/kg/dose IP): 0/6
Approx. Log10 Change in Tumor Burden at End of Rx ([1]; 4 mg/kg/dose IP): ~2.4 log10
Body Weight Difference ([1]; 4 mg/kg/dose IP): -1.1 Grams
Median % T/C ([1]; 4 mg/kg/dose IP): 152%
30-Day Survivors/Total ([1]; 8 mg/kg/dose IP): 0/6
Approx. Log10 Change in Tumor Burden at End of Rx ([1]; 8 mg/kg/dose IP): ~-0.7 log10
Body Weight Difference ([1]; 8 mg/kg/dose IP): -1.8 Grams
Median % T/C ([1]; 8 mg/kg/dose IP): 205%
30-Day Survivors/Total ([1]; 16 mg/kg/dose IP): 2/6
Approx. Log10 Change in Tumor Burden at End of Rx ([1]; 16 mg/kg/dose IP): ~-5.7 log10
Body Weight Difference ([1]; 16 mg/kg/dose IP): -3.6 Grams
Median % T/C ([1]; 16 mg/kg/dose IP): 333%
Body Weight Difference ([1]; 16 mg/kg/dose IP, listed as cis): less than -4 Grams
Optimal dose (dose producing best therapeutic response) ([1]; day 1, 5 and 9 schedule): 16 mg/kg/injection
30 Day Survivors/Total (IP L1210/Cisplatin [2]; 1 mg/kg/dose): 0/6
Approx. Log10 Change in Tumor Burden at End of RX (IP L1210/Cisplatin [2]; 1 mg/kg/dose): ~3.0 log10
Median % T/C (IP L1210/Cisplatin [2]; 1 mg/kg/dose): 105%
30 Day Survivors/Total (IP L1210/Cisplatin [2]; 2 mg/kg/dose): 0/6
Approx. Log10 Change in Tumor Burden at End of RX (IP L1210/Cisplatin [2]; 2 mg/kg/dose): ~2.9 log10
Median % T/C (IP L1210/Cisplatin [2]; 2 mg/kg/dose): 110%
30 Day Survivors/Total (IP L1210/Cisplatin [2]; 4 mg/kg/dose): 0/6
Approx. Log10 Change in Tumor Burden at End of RX (IP L1210/Cisplatin [2]; 4 mg/kg/dose): ~2.9 log10
Median % T/C (IP L1210/Cisplatin [2]; 4 mg/kg/dose): 111%
30 Day Survivors/Total (IP L1210/Cisplatin [2]; 8 mg/kg/dose): 0/6
Approx. Log10 Change in Tumor Burden at End of RX (IP L1210/Cisplatin [2]; 8 mg/kg/dose): ~2.4 log10
Median % T/C (IP L1210/Cisplatin [2]; 8 mg/kg/dose): 138%
30 Day Survivors/Total (IP L1210/Cisplatin [2]; 16 mg/kg/dose): 3/6
Approx. Log10 Change in Tumor Burden at End of RX (IP L1210/Cisplatin [2]; 16 mg/kg/dose): ~-5.9 log10
Median % T/C (IP L1210/Cisplatin [2]; 16 mg/kg/dose): 322%
60 Day Survivors/Total (IP L1210; 2 mg/kg/dose): 0/10
Body Weight Difference (IP L1210; 2 mg/kg/dose): -0.9 Grams
Median % T/C (IP L1210; 2 mg/kg/dose): 143%
60 Day Survivors/Total (IP L1210; 4 mg/kg/dose): 2/10
Body Weight Difference (IP L1210; 4 mg/kg/dose): -0.9 Grams
Median % T/C (IP L1210; 4 mg/kg/dose): 250%
60 Day Survivors/Total (IP L1210; 8 mg/kg/dose): 2/10
Median % T/C (IP L1210; 8 mg/kg/dose): 313%
60 Day Survivors/Total (IP L1210; 16 mg/kg/dose): 0/10
Body Weight Difference (IP L1210; 16 mg/kg/dose): -5.6 Grams
Median % T/C (IP L1210; 16 mg/kg/dose): 98%
60 Day Survivors/Total (IP L1210; 32 mg/kg/dose): 0/10
Body Weight Difference (IP L1210; 32 mg/kg/dose): -5.6 Grams
Median % T/C (IP L1210; 32 mg/kg/dose): Toxic
60 Day Survivors/Total (IP L1210/Cisplatin [3]; 2 mg/kg/dose): 0/10
Body Weight Difference (IP L1210/Cisplatin [3]; 2 mg/kg/dose): -0.3 Grams
Median % T/C (IP L1210/Cisplatin [3]; 2 mg/kg/dose): 121%
60 Day Survivors/Total (IP L1210/Cisplatin [3]; 4 mg/kg/dose): 0/10
Body Weight Difference (IP L1210/Cisplatin [3]; 4 mg/kg/dose): 0.0 Grams
Median % T/C (IP L1210/Cisplatin [3]; 4 mg/kg/dose): 130%
60 Day Survivors/Total (IP L1210/Cisplatin [3]; 8 mg/kg/dose): 1/10
Body Weight Difference (IP L1210/Cisplatin [3]; 8 mg/kg/dose): -2.7 Grams
Median % T/C (IP L1210/Cisplatin [3]; 8 mg/kg/dose): 191%
60 Day Survivors/Total (IP L1210/Cisplatin [3]; 16 mg/kg/dose): 0/10
Body Weight Difference (IP L1210/Cisplatin [3]; 16 mg/kg/dose): -5.4 Grams
Median % T/C (IP L1210/Cisplatin [3]; 16 mg/kg/dose): Toxic
60 Day Survivors/Total (IP L1210/Cisplatin [3]; 32 mg/kg/dose): 0/10
Body Weight Difference (IP L1210/Cisplatin [3]; 32 mg/kg/dose): -5.1 Grams
Median % T/C (IP L1210/Cisplatin [3]; 32 mg/kg/dose): Toxic
60-day (long term) survivors (IP L1210/Cisplatin [3]; L1210/cisplatin, tolerated doses): only one long term survivor
